According to PubChem BioAssay (NCI):
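Exposure lasted 48 hours, with cells grown in 96-well plates and compounds tested at five concentrations. The concentration for full growth arrest is given as TGI.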

What was measured:
Experiment in all cases: inhibition of tumour cell growth, NCI panel, 48 h
786-0 renal = system: 786-0 renal
A498 renal = system: A498 renal
A549 NSCLC = system: A549 NSCLC
ACHN renal = system: ACHN renal
BT-549 breast = system: BT-549 breast
CAKI-1 renal = system: CAKI-1 renal
CCRF-CEM leukemia = system: CCRF-CEM leukemia
COLO 205 colon = system: COLO 205 colon
DU-145 prostate = system: DU-145 prostate
EKVX NSCLC = system: EKVX NSCLC
HCC-2998 colon = system: HCC-2998 colon
HCT-116 colon = system: HCT-116 colon
HCT-15 colon = system: HCT-15 colon
HL-60(TB) leukemia = system: HL-60(TB) leukemia
HOP-62 NSCLC = system: HOP-62 NSCLC
HOP-92 NSCLC = system: HOP-92 NSCLC
HS 578T breast = system: HS 578T breast
HT29 colon = system: HT29 colon
IGROV1 ovarian = system: IGROV1 ovarian
K-562 leukemia = system: K-562 leukemia
KM12 colon = system: KM12 colon
LOX IMVI melanoma = system: LOX IMVI melanoma
M14 melanoma = system: M14 melanoma
MALME-3M melanoma = system: MALME-3M melanoma
MCF7 breast = system: MCF7 breast
MDA-MB-231 breast = system: MDA-MB-231 breast
MDA-MB-435 = system: MDA-MB-435
MDA-N = system: MDA-N
MOLT-4 leukemia = system: MOLT-4 leukemia
NCI-H226 lung = system: NCI-H226 lung
NCI-H23 lung = system: NCI-H23 lung
NCI-H460 lung = system: NCI-H460 lung
NCI-H522 lung = system: NCI-H522 lung
NCI/ADR-RES ovarian = system: NCI/ADR-RES ovarian
OVCAR-3 ovarian = system: OVCAR-3 ovarian
OVCAR-4 ovarian = system: OVCAR-4 ovarian
OVCAR-5 ovarian = system: OVCAR-5 ovarian
OVCAR-8 ovarian = system: OVCAR-8 ovarian
PC-3 prostate = system: PC-3 prostate
RPMI-8226 leukemia = system: RPMI-8226 leukemia
RXF 393 renal = system: RXF 393 renal
SF-268 CNS = system: SF-268 CNS
SF-295 CNS = system: SF-295 CNS
SF-539 CNS = system: SF-539 CNS
SK-MEL-2 melanoma = system: SK-MEL-2 melanoma
SK-MEL-28 melanoma = system: SK-MEL-28 melanoma
SK-MEL-5 melanoma = system: SK-MEL-5 melanoma
SK-OV-3 ovarian = system: SK-OV-3 ovarian
SN12C renal = system: SN12C renal
SNB-75 CNS = system: SNB-75 CNS
SR leukemia = system: SR leukemia
SW-620 colon = system: SW-620 colon
T-47D breast = system: T-47D breast
TK-10 renal = system: TK-10 renal
U251 CNS = system: U251 CNS
UACC-257 melanoma = system: UACC-257 melanoma
UO-31 renal = system: UO-31 renal
SNB-19 CNS = system: SNB-19 CNS
UACC-62 melanoma = system: UACC-62 melanoma

Work on COc1cccc(N=Cc2cc(OC)c(OC)c(OC)c2)c1 yielded a TGI (786-0 renal) of over 100 µM, a TGI (A498 renal) of over 100 µM and a TGI (A549 NSCLC) of over 100 µM. It also gave a TGI (ACHN renal) of over 100 µM, a TGI (BT-549 breast) of over 100 µM and a TGI (CAKI-1 renal) of over 100 µM. The TGI (CCRF-CEM leukemia) was over 100 µM, the TGI (COLO 205 colon) was over 100 µM and the TGI (DU-145 prostate) was over 100 µM. For the same compound, the TGI (EKVX NSCLC) was over 100 µM, the TGI (HCC-2998 colon) was over 100 µM and the TGI (HCT-116 colon) was over 100 µM. The TGI (HCT-15 colon) was over 100 µM, the TGI (HL-60(TB) leukemia) was over 100 µM and the TGI (HOP-62 NSCLC) was over 100 µM. It also gave a TGI (HOP-92 NSCLC) of over 100 µM, a TGI (HS 578T breast) of over 100 µM and a TGI (HT29 colon) of over 100 µM. The TGI (IGROV1 ovarian) was over 100 µM, the TGI (K-562 leukemia) was over 100 µM and the TGI (KM12 colon) was over 100 µM. The TGI (LOX IMVI melanoma) was over 100 µM, the TGI (M14 melanoma) was over 100 µM and the TGI (MALME-3M melanoma) was over 100 µM. For the same compound, the TGI (MCF7 breast) was over 100 µM, the TGI (MDA-MB-231 breast) was over 100 µM and the TGI (MDA-MB-435) was over 100 µM. The TGI (MDA-N) was over 100 µM, the TGI (MOLT-4 leukemia) was over 100 µM and the TGI (NCI-H226 lung) was over 100 µM. It also gave a TGI (NCI-H23 lung) of over 100 µM, a TGI (NCI-H460 lung) of over 100 µM and a TGI (NCI-H522 lung) of over 100 µM. It also gave a TGI (NCI/ADR-RES ovarian) of over 100 µM, a TGI (OVCAR-3 ovarian) of over 100 µM and a TGI (OVCAR-4 ovarian) of over 100 µM. It also gave a TGI (OVCAR-5 ovarian) of over 100 µM, a TGI (OVCAR-8 ovarian) of over 100 µM and a TGI (PC-3 prostate) of over 100 µM. For the same compound, the TGI (RPMI-8226 leukemia) was over 100 µM, the TGI (RXF 393 renal) was over 100 µM and the TGI (SF-268 CNS) was over 100 µM. The TGI (SF-295 CNS) was over 100 µM, the TGI (SF-539 CNS) was over 100 µM and the TGI (SK-MEL-2 melanoma) was over 100 µM. For the same compound, the TGI (SK-MEL-28 melanoma) was over 100 µM, the TGI (SK-MEL-5 melanoma) was over 100 µM and the TGI (SK-OV-3 ovarian) was over 100 µM. For the same compound, the TGI (SN12C renal) was over 100 µM, the TGI (SNB-75 CNS) was over 100 µM and the TGI (SR leukemia) was over 100 µM. For the same compound, the TGI (SW-620 colon) was over 100 µM, the TGI (T-47D breast) was over 100 µM and the TGI (TK-10 renal) was over 100 µM. The TGI (U251 CNS) was over 100 µM, the TGI (UACC-257 melanoma) was over 100 µM and the TGI (UO-31 renal) was over 100 µM.

CCCc1[nH]nc(C(N)=O)c1N=NN(C)C gave a TGI (786-0 renal) of over 100 µM, a TGI (A498 renal) of over 100 µM and a TGI (A549 NSCLC) of over 100 µM. The TGI (ACHN renal) was over 100 µM, the TGI (BT-549 breast) was over 100 µM and the TGI (CAKI-1 renal) was over 100 µM. For the same compound, the TGI (CCRF-CEM leukemia) was over 100 µM, the TGI (COLO 205 colon) was over 100 µM and the TGI (DU-145 prostate) was over 100 µM. It also gave a TGI (EKVX NSCLC) of over 100 µM, a TGI (HCC-2998 colon) of over 100 µM and a TGI (HCT-116 colon) of over 100 µM. For the same compound, the TGI (HCT-15 colon) was over 100 µM, the TGI (HL-60(TB) leukemia) was over 100 µM and the TGI (HOP-62 NSCLC) was over 100 µM. For the same compound, the TGI (HOP-92 NSCLC) was over 100 µM, the TGI (HS 578T breast) was over 100 µM and the TGI (HT29 colon) was over 100 µM. For the same compound, the TGI (IGROV1 ovarian) was over 100 µM, the TGI (K-562 leukemia) was over 100 µM and the TGI (KM12 colon) was over 100 µM. It also gave a TGI (LOX IMVI melanoma) of over 100 µM, a TGI (M14 melanoma) of over 100 µM and a TGI (MALME-3M melanoma) of over 100 µM. The TGI (MCF7 breast) was 80 µM, the TGI (MDA-MB-231 breast) was over 100 µM and the TGI (MDA-MB-435) was over 100 µM. It also gave a TGI (MDA-N) of over 100 µM, a TGI (MOLT-4 leukemia) of 49 µM and a TGI (NCI-H226 lung) of over 100 µM. For the same compound, the TGI (NCI-H23 lung) was over 100 µM, the TGI (NCI-H522 lung) was 74.9 µM and the TGI (NCI/ADR-RES ovarian) was over 100 µM. For the same compound, the TGI (OVCAR-3 ovarian) was over 100 µM, the TGI (OVCAR-4 ovarian) was over 100 µM and the TGI (OVCAR-8 ovarian) was over 100 µM. For the same compound, the TGI (PC-3 prostate) was over 100 µM, the TGI (RPMI-8226 leukemia) was over 100 µM and the TGI (RXF 393 renal) was over 100 µM. The TGI (SF-268 CNS) was over 100 µM, the TGI (SF-295 CNS) was over 100 µM and the TGI (SF-539 CNS) was over 100 µM. It also gave a TGI (SK-MEL-2 melanoma) of over 100 µM, a TGI (SK-MEL-28 melanoma) of over 100 µM and a TGI (SK-MEL-5 melanoma) of over 100 µM. It also gave a TGI (SK-OV-3 ovarian) of over 100 µM, a TGI (SN12C renal) of over 100 µM and a TGI (SNB-19 CNS) of over 100 µM. The TGI (SNB-75 CNS) was over 100 µM, the TGI (SR leukemia) was 40.6 µM and the TGI (SW-620 colon) was over 100 µM. It also gave a TGI (T-47D breast) of over 100 µM, a TGI (TK-10 renal) of over 100 µM and a TGI (U251 CNS) of over 100 µM. The TGI (UACC-257 melanoma) was over 100 µM, the TGI (UACC-62 melanoma) was over 100 µM and the TGI (UO-31 renal) was over 100 µM.
